# Experimental data as given in paper PMC4670083 (Nature medicine, 2015).
# Target: T1, HPRT1 (Homo sapiens, UniProt P00492)
# T1 sequence (P00492 2-218): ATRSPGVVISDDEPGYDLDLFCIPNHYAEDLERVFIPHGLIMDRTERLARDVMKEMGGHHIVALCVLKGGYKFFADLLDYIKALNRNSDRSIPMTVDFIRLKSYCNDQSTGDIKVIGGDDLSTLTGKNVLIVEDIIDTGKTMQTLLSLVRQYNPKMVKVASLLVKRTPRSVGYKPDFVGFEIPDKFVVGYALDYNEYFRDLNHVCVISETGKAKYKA
# Assay: biochemical
compound,measurement,value
"O=c1[nH]cnc2nc[nH]c12 [HX, hypoxanthine]",IC50,7.7 µM
